The record followed here is patent US20080003438A1, “Heterocyclic siloxanes for use in biocidal coatings and materials” (Auburn University, priority 2002, published 2008).

In series [1] the test system is spores of Aspergillus niger (ATCC # 1004). Briefly: Antifungal activity of chlorinated coated surfaces. The format is cell-based. As to the method: Soft and hard surfaces were treated by exposure to a solution of 3-triethoxysilylpropyl-5,5-dimethylhydantoin, prepared as described in Example 1. The soft surfaces used for detection of antifungal properties were woven textiles composed of fibers of polypropylene, cotton (cellulose), polyester, rayon, and slabs from a cellulose kitchen sponge. Hard surfaces prepared were polyvinylchloride (PVC) sheets, and porcelain and marble tiles. Challenge inocula of prepared surfaces consisted of aliquots of stock suspensions of spores of Aspergillus niger (ATCC # 1004), a black mold, harvested from cultured lawns on Potato Dextrose Agar (PDA) plates. Methods for preparation of the halogen charged surfaces and protocols for challenge were as described in Example 11. In this case recovery of Aspergillus was accomplished by the plate dilution method on PDA, and the results were expressed as log 10 reductions compared to the controls. Contact times varied from 24-72 hours, considerably longer than was allowed for other organisms because of the well established durability of black mold spores under a wide range of physical and chemical conditions.

The nature of series [2]: Laundry washing cycles (AATCC Test Method 61, Test 2A), chlorine loading after washing. The format is physicochemical. Conditions: for Average Chlorine Loading %: cotton. As to the method:
Finally, a wash test was performed on swatches of cotton containing the monomer 3-triethoxysilylpropyl-5,5-dimethylhydantoin coating and the polysiloxane coating, each chlorinated and unchlorinated, for comparison purposes. Two treatment baths were prepared, one containing an 8% solution of 3-triethoxysilylpropyl-5,5-dimethylhydantoin in a 50% solution of ethanol in water, the other containing an 8% solution of siloxane polymer prepared as described above in a 66.7% solution of ethanol in water. Identical cotton swatches were soaked in the two baths for 2.5 minutes at ambient temperature, cured in air at 130° C. for 20 minutes, soaked in 1.5% liquid detergent at ambient temperature for 15 minutes, rinsed thoroughly with water, and dried in air at 50° C. for 30 minutes. Then one-half of the swatches of each type were chlorinated by soaking them in 5% CLOROX at ambient temperature for 45 minutes. These chlorinated samples were rinsed thoroughly with water and dried in air at 50° C. for 30 minutes to remove all occluded free chlorine. Iodometric/thiosulfate titrations were performed on representative samples to determine initial chlorine loadings. The average chlorine loading for the silane monomer-coated samples was 0.61%; for the siloxane polymer-coated samples, the average chlorine loading was 0.40%. Then all types of coated swatches were subjected to laundry washing cycles using AATCC Test Method 61 (Test 2A Procedure). Samples were evaluated after 5, 10, and 50 washing cycles for retention of the coatings. Those samples not chlorinated before washing were chlorinated by the procedure described above in order to assess how much chlorine could be loaded after variable numbers of washing cycles. Those chlorinated before washing were divided into two groups with half being assessed for chlorine loading without rechlorination, the other half being rechlorinated and then assessed for chlorine loading. Three observations are clearly evident from the data in Table 3. First, both the silane and the siloxane coatings are partially lost upon successive washings. Second, prechlorination reduces the rate of loss, probably due to increasing the hydrophobicity of the surface, thus reducing the rate of hydrolysis loss of the siloxane coatings. Third, the siloxane coating, which is not chlorinated to as high a level as the silane one upon initial chlorination, is lost at a slower rate than is the silane coating. For all of the coatings, at least partial biocidal efficacy would be regenerated upon rechlorination after 50 washing cycles. Most probably, a low concentration of bleach added to washing cycles should maintain biocidal activity of the cotton material for the lifetime of the material.
Finally, 100% cotton fabric swatches were tested. In this case 10 mL of the refluxed solution of polymer (the solid was not isolated) were mixed with 100 mL of a 50% ethanol/50% water solution in a beaker. The cotton swatches (7 g) were soaked in the solution for 3 minutes, then partially dried in air at ambient temperature, and then cured at 150° C. for 30 minutes. After soaking in 5% CLOROX for 20 minutes, the swatches were rinsed and dried at ambient temperature. The average chlorine loading of several swatches was determined by iodometric/thiosulfate titration to be 0.438% Cl. Then the other treated swatches were subjected to laundry washing cycles using AATCC Test Method 61 (Test 2A Procedure) followed by analytical determination of chlorine loading as a function of the number of wash cycles. After 5, 10, and 50 wash cycles the chlorine loadings averaged 0.282%, 0.279%, and 0.165%, respectively.

Series [3] concerns Proteus mirabilis bacteria. Briefly: Odor control: ammonia in head space above inoculated wood pulp pads. It is filed as cell-based. Conditions: coated, chlorinated wood pulp pads, 37° C., six hours. The procedure: 3-triethoxysilylpropyl-5,5-dimethylhydantoin, prepared as described in Example 1, was used to treat non-woven pads consisting of 1 gram of a wood pulp matrix such as is used in diapers and incontinence products. A 5% solution prepared in a distilled water and ethanol 1:1 mixture was applied to pads of the wood pulp fibers, and they were then left to soak for 5 minutes. Excess solution was vacuum suctioned from the pads, which were then dried in an oven at 90° C. for two hours. Untreated pads were also subjected to exposure to water and ethanol as controls, and were similarly dried.
Dried coated test samples and uncoated control pads were then treated by exposure to 10% sodium hypochlorite solution for 15 minutes, after which they were rinsed exhaustively with distilled water, and then vacuum dried to remove any unbound, free chlorine. Additional control pads consisted of wood pulp coated with 3-triethoxysilylpropyl-5,5-dimethylhydantoin but not exposed to the hypochlorite bleach charge. […]
All test and control pads were then exposed to an inoculum designed to generate ammonia odor as a result of bacterial action on urine, simulating events in an infant or adult human diaper. […] At the end of this period the samples were removed from the incubator, and the amount of ammonia gas in the head space above each pad was measured as an indicator of the degree of odor generated in the urine. […]

As to `CCO[Si](CCCN1C(=O)NC(C)(C)C1=O)(OCC)OCC` [3-triethoxysilylpropyl-5,5-dimethylhydantoin], the “log 10 reduction in mold concentration” value in series [1] (cotton, contact 24 hours) is listed as 8 logs; in series [1] (marble, 72 hours after spore inoculation), 4 log; in series [1] (porcelain, 72 hours after spore inoculation) it was 5 log; in series [1] (sponge slabs, contact 24 hours) it was 4 log; in series [1] (synthetic fibers (polypropylene, polyester), 72 hours of contact) it was 5 logs; in series [1] (vinyl, 72 hours after spore inoculation), 4 log. In series [2] (cotton cloth, after 50 wash cycles), the bound chlorine retained entry is “about 34%”. Also, the “Average Chlorine Loading %” value in series [2] (chlorination before washing No, after washing Yes, 5 washing cycles) amounted to 0.26%; in series [2] (chlorination before washing No, after washing Yes, 10 washing cycles) it was 0.15%; in series [2] (chlorination before washing No, after washing Yes, 50 washing cycles), 0.03%; in series [2] (chlorination before washing Yes, after washing No, 5 washing cycles), 0.42%; in series [2] (chlorination before washing Yes, after washing No, 10 washing cycles) it was 0.41%; in series [2] (chlorination before washing Yes, after washing No, 50 washing cycles), 0.10%. Besides, the “Average Chlorine Loading %” value in series [2] (chlorination before washing Yes, after washing Yes, 5 washing cycles) came out at 0.394%; in series [2] (chlorination before washing Yes, after washing Yes, 10 washing cycles), 0.388%; in series [2] (chlorination before washing Yes, after washing Yes, 50 washing cycles), 0.133%. In addition, the “odor detected by the human nose” value in series [3] was “no detectable odor whatsoever”. Besides, the “ammonia in the head space above the pads” value in series [3] (urine + urea + P. mirabilis, lower limit of detection 0.25 ppm) is under 0.25 ppm.
